Consider 20 compounds from US8546376B2, “Pharmaceutical compounds” (Almac Discovery Limited, priority 2009, dated 2013).

What all share (type): biochemical
In one experiment the target is T1, AKT2 (Homo sapiens, UniProt P31751).
T1 construct: purchased SignalChem
Briefly: AKT Kinase Assay (IMAP fluorescent polarisation) vs AKT2. As to conditions: activated AKT2, FAM Crosstide substrate. The method, then: (§1) Testing of the compounds was performed using an AKT Kinase Assay:
(§2) Activated AKT isoforms 1, 2 and 3 were assayed utilising a 5′ FAM Crosstide (Seq. GRPRTSSFAEG-OH). The extent of kinase phosphorylation was determined by fluorescent polarisation using IMAP progressive binding reagent, which introduces binding beads which allow the reagent to specifically bind to phosphate residues via covalent co-ordination complex bonds.
(§3) iMAP binding solution stops Crosstide/kinase interaction and specifically binds phosphorylated substrates. The degree of phosphorylation is determined by fluorescent polarisation (excitation 485 nm; emission 528 nm) or the reduction in speed of rotation of the excited substrate.
(§4) The following materials were used in the assay: • a) Activated AKT isoforms (SignalChem.) dissolved in Complete Reaction buffer at a pre-determined concentration selected so that the assay was carried out in the linear range. • b) AKT substrate peptide: FAM Crosstide (R7110) Molecular Devices, diluted in complete reaction buffer. • c) iMAP Progressive Screening Express Kit (R8127) Molecular Devices • d) Complete Reaction Buffer containing 0.1% BSA, 10 mM Tris-HCl, 10 mM MgCl2, 0.05% NaN3 and 0.01% phosphate free BSA, 1 mM DTT • e) Progressive Binding Solution containing 75% Buffer A, 25% Buffer B and low volume Binding Reagent which contains the binding entity for the assay • f) ATP diluted in complete reaction buffer • g) Black polystyrene 384 well assay plates (Nunc). • h) Biotek Synergy 4 Hybrid Plate reader.
(§5) 5 μl of test compound was dissolved in DMSO (Sigma Aldrich) and serially diluted in complete reaction buffer to give a fourteen point half log dose response and plated into 384 well black plates. The compound was incubated at room temperature with activated AKT isoform (5 μl) at the pre-determined concentration, for 45 minutes.
(§6) 2.5 μl of ATP solution mixed with 2.5 μl of AKT substrate peptide (FAM Crosstide (R7110) Molecular Devices) were dispensed into each well and the plate centrifuged at 1000 rpm for 20 seconds to ensure homogenous mixing of reagents. The reaction mix was incubated in the dark for one hour at room temperature.
(§7) The kinase reaction was stopped by the addition of Progressive Binding Solution and the mixture allowed to equilibrate for one hour in the dark, at room temperature.
(§8) The fluorescent polarisation generated in each well was determined using a […] Synergy 4 Hybrid plate reader. In brief, each reaction solution was excited at 485 nm with the emission measured at 528 nm in both the parallel and perpendicular pathway.
(§9) The polarisation value generated in each well was calculated by Gen5 software (Biotek) and the % inhibition of kinase activity compared to vehicle control was calculated via GraphPad Prism. IC50 values for each compound were calculated by non-linear regression analysis using Prism software.
(§10) All plates were internally controlled by two methods. Firstly, by calculating the signal:noise ratio; based on kinase polarisation without inhibitor and polarisation generated by complete reaction buffer in the absence of activated kinase. Secondly by determining IC50 values generated by known inhibitors of the AKT isoforms.

The target of a further experiment is T2, AKT3 (Homo sapiens, UniProt Q9Y243).
T2 construct: purchased SignalChem
Briefly: AKT Kinase Assay (IMAP fluorescent polarisation) vs AKT3. As to conditions: activated AKT3, FAM Crosstide substrate. On the procedure: as §1, §2, §3, §4, §5, §6, §7, §8, §9, §10

Another experiment addresses T3, AKT1 (Homo sapiens, UniProt P31749).
T3 construct: purchased SignalChem
Briefly: AKT Kinase Assay (IMAP fluorescent polarisation) vs AKT1. As to conditions: activated AKT1, FAM Crosstide substrate. The method, then:
as §1, §2, §3, §4, §5, §6, §7, §8, §9, §10

As a reminder, the IC50 is the concentration at which inhibition is half-maximal.

Where a name gives a salt, the structure may show the parent alone.

T1 sequence (P31751 whole entry): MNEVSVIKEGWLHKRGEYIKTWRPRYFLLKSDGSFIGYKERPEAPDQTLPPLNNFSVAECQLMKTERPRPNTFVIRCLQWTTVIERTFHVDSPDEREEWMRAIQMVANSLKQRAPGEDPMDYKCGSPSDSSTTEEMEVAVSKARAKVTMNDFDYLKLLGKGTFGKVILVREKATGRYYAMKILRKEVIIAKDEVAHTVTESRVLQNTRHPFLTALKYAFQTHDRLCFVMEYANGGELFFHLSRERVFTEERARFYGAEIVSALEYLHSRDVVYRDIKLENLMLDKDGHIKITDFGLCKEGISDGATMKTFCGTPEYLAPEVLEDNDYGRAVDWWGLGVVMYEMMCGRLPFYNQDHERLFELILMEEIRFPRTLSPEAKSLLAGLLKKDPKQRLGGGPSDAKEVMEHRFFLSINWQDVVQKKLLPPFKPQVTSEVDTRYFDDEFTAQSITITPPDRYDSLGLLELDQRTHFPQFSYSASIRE
T2 sequence (Q9Y243 whole entry): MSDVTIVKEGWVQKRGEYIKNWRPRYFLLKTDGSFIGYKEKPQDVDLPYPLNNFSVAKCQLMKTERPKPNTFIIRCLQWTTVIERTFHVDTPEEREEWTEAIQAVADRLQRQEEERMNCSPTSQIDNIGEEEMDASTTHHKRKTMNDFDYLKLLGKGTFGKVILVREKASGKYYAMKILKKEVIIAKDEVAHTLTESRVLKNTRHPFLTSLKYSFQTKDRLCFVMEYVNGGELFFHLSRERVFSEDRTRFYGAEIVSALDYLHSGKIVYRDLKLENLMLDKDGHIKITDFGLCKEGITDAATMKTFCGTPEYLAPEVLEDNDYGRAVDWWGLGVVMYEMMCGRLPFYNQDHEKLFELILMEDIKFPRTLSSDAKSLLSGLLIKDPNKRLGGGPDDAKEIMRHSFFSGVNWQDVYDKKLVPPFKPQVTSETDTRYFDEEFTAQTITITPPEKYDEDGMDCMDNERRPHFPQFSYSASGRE
T3 sequence (P31749 whole entry): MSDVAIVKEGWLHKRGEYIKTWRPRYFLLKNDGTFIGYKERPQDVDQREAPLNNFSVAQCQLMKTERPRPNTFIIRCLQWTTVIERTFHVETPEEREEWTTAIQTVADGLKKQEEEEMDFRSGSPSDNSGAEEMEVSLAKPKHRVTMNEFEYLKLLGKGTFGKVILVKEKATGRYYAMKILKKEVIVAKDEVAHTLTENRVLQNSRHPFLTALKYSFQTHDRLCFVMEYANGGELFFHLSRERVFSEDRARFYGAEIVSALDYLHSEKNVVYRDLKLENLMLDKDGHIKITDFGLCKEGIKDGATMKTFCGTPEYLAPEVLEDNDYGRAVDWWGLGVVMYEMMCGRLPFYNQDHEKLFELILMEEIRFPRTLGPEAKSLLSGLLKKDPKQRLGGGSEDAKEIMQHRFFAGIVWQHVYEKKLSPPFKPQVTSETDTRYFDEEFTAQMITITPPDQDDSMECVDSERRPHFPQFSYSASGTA

As for `CS(=O)(=O)c1ccccc1-c1nccc2c(=O)c(-c3ccc(C4(N)CCC4)cc3)c(-c3ccccc3)oc12` [Example 119, 3-(4-(1-aminocyclobutyl)phenyl)-8-(2-(methylsulfonyl)phenyl)-2-phenyl-4H-pyrano[2,3-c]pyridin-4-one], the IC50 on AKT2 is 1000 to 10000 nM; at AKT3, greater than 10000 nM; at AKT1, 1000 to 10000 nM.
Regarding `COc1ccc2oc(-c3ccccc3)c(-c3ccc(C4(N)CCC4)cc3)c(=O)c2c1` [Example 5, 3-[4-(1-Amino-cyclobutyl)-phenyl]-6-methoxy-2-phenyl-chromen-4-one], the results for the IC50 at AKT2, at AKT3 and at AKT1 were 1000 to 10000 nM, greater than 10000 nM and 1000 to 10000 nM, respectively.
As for `NC1(c2ccc(-c3c(-c4ccccc4)oc4c5c(ccc4c3=O)NC(=O)CO5)cc2)CCC1` [Example 92, 7-[4-(1-Amino-cyclobutyl)-phenyl]-6-phenyl-1H-4,5-dioxa-1-aza-phenanthrene-2,8-dione], the values for the IC50 on AKT2, on AKT3 and at AKT1 were no more than 1000 nM, 1000 to 10000 nM and no more than 1000 nM, respectively.
For `CC(C)Cn1cc(-c2nccc3c(=O)c(-c4ccc(C5(N)CCC5)cc4)c(-c4ccccc4)oc23)cn1` [Example 117, 3-(4-(1-aminocyclobutyl)phenyl)-8-(1-isobutyl-1H-pyrazol-4-0)-2-phenyl-4H-pyrano[2,3-c]pyridin-4-one], the figures for the IC50 on AKT2, on AKT3 and at AKT1 were no more than 1000 nM, 1000 to 10000 nM and no more than 1000 nM, respectively.
As for `COc1cc2c(=O)c(-c3ccc(C4(N)CCC4)cc3)c(-c3ccccc3)oc2cc1Br` [Example 26, 3-[4-(1-Amino-cyclobutyl)-phenyl]-7-bromo-6-methoxy-2-phenyl-chromen-4-one], the IC50 at AKT2 is 1000 to 10000 nM; at AKT3, greater than 10000 nM; on AKT1, greater than 10000 nM.
As to `Cn1cnc2ccc3c(=O)c(-c4ccc(C5(N)CCC5)cc4)c(-c4ccccc4)oc3c21` [Example 96, 7-[4-(1-Amino-cyclobutyl)-phenyl]-1-methyl-8-phenyl-1H-chromeno[7,8-d]imidazol-6-one], the IC50 on AKT2, on AKT3 and at AKT1 was no more than 1000 nM each time.
With `NC1(c2ccc(-c3c(-c4ccccc4)oc4c(ccc5[nH]ncc54)c3=O)cc2)CCC1` [Example 33, 3-[4-(1-Amino-cyclobutyl)-phenyl]-2-phenyl-7H-pyrano[2,3-c]indazol-4-one], the IC50 on AKT2, at AKT3 and on AKT1 was no more than 1000 nM in each case.
`CCc1nn(C)c2c1ccc1c(=O)c(-c3ccc(C4(N)CCC4)cc3)c(-c3ccccc3)oc12` [Example 98, 7-[4-(1-Amino-cyclobutyl)-phenyl]-3-ethyl-1-methyl-8-phenyl-1H-9-oxa-1,2-diaza-cyclopenta[a]naphthalen-6-one hydrochloride]: the IC50 on AKT2 was no more than 1000 nM; at AKT3 it was 1000 to 10000 nM; on AKT1, no more than 1000 nM.
As for `Cc1noc(C)c1-c1cccc2c(=O)c(-c3ccc(C4(N)CCC4)cc3)c(-c3ccccc3)oc12` [Example 78, 3-[4-(1-Amino-cyclobutyl)-phenyl]-8-(3,5-dimethyl-isoxazol-4-yl)-2-phenyl-chromen-4-one], the IC50 at AKT2, at AKT3 and on AKT1 was 1000 to 10000 nM in each case.
Regarding `NC1(c2ccc(-c3c(-c4ccccc4)oc4ccc(-n5ccnc5)cc4c3=O)cc2)CCC1` [Example 22, 3-[4-(1-Amino-cyclobutyl)-phenyl]-6-imidazol-1-yl-2-phenyl-chromen-4-one], the values for the IC50 on AKT2, at AKT3 and on AKT1 were 1000 to 10000 nM, greater than 10000 nM and 1000 to 10000 nM, respectively.
`NC1(c2ccc(-c3c(-c4ccccc4)oc4c(ccn5c(=O)[nH]nc45)c3=O)cc2)COC1` [Example 68, 7-[4-(3-Amino-oxetan-3-yl)-phenyl]-8-phenyl-2H-9-oxa-1,2,3a-triaza-cyclopenta[a]naphthalene-3,6-dione]: the IC50 at AKT2 is 1000 to 10000 nM; at AKT3, greater than 10000 nM; on AKT1, no more than 1000 nM.
The like results for `COc1cc2oc(-c3ccccc3)c(-c3ccc(C4(N)CCC4)cc3)c(=O)c2cc1Br` [Example 27, 3-[4-(1-Amino-cyclobutyl)-phenyl]-6-bromo-7-methoxy-2-phenyl-chromen-4-one] were, in that order, 1000 to 10000 nM, greater than 10000 nM and greater than 10000 nM.
The like results for `NC1(c2ccc(-c3c(-c4ccccc4)oc4c(ccc5c(Cl)n[nH]c54)c3=O)cc2)CCC1` [Example 99, 7-[4-(1-Amino-cyclobutyl)-phenyl]-3-chloro-8-phenyl-1H-9-oxa-1,2-diaza-cyclopenta[a]naphthalen-6-one hydrochloride] were, in that order, 1000 to 10000 nM, 1000 to 10000 nM and no more than 1000 nM.
The matching figures for `NC1(c2ccc(-c3c(-c4ccccc4)oc4c(-c5c[nH]nn5)cccc4c3=O)cc2)CCC1` [Example 106, 3-[4-(1-Amino-cyclobutyl)-phenyl]-2-phenyl-8-(1H-[1,2,3]triazol-4-yl)-chromen-4-one]: no more than 1000 nM, no more than 1000 nM and no more than 1000 nM.
Consider `C#Cc1cccc2c(=O)c(-c3ccc(C4(N)CCC4)cc3)c(-c3ccccc3)oc12` [Example 105, 3-[4-(1-Amino-cyclobutyl)-phenyl]-8-ethynyl-2-phenyl-chromen-4-one], for which the IC50 is 1000 to 10000 nM at AKT2, 1000 to 10000 nM on AKT3 and no more than 1000 nM at AKT1.
As for `NC1(c2ccc(-c3c(-c4ccccc4)oc4c(ccc5cn[nH]c54)c3=O)cc2)CCC1` [Example 57, 7-[4-(1-Amino-cyclobutyl)-phenyl]-8-phenyl-1H-9-oxa-1,2-diaza-cyclopenta[a]naphthalen-6-one], the IC50 is no more than 1000 nM on AKT2, 1000 to 10000 nM at AKT3 and no more than 1000 nM at AKT1.
`N#Cc1nccc2c(=O)c(-c3ccc(C4(N)CCC4)cc3)c(-c3ccccc3)oc12` [Example 127, 3-(4-(1-aminocyclobutyl)phenyl)-4-oxo-2-phenyl-4H-pyrano[2,3-c]pyridine-8-carbonitrile]: the IC50 is 1000 to 10000 nM at AKT2, greater than 10000 nM on AKT3 and no more than 1000 nM on AKT1.
The like results for `NC1(c2ccc(-c3c(-c4ccccc4)oc4c(-c5cccnc5)cccc4c3=O)cc2)CCC1` [Example 56, 3-[4-(1-Amino-cyclobutyl)-phenyl]-2-phenyl-8-pyridin-3-yl-chromen-4-one] were, in that order, no more than 1000 nM, 1000 to 10000 nM and no more than 1000 nM.
On to `Cc1n[nH]cc1-c1cccc2c(=O)c(-c3ccc(C4(N)CCC4)cc3)c(-c3ccccc3)oc12` [Example 73, 3-[4-(1-Amino-cyclobutyl)-phenyl]-8-(3-methyl-1H-pyrazol-4-yl)-2-phenyl-chromen-4-one hydrochloride], for which the IC50 at AKT2 is no more than 1000 nM; at AKT3, 1000 to 10000 nM; at AKT1, no more than 1000 nM.
`NC1(c2ccc(-c3c(-c4ccccc4)oc4c(-c5ccc(C6(N)CCC6)cc5)nccc4c3=O)cc2)CCC1` [Example 113, 3,8-bis(4-(1-aminocyclobutyl)phenyl)-2-phenyl-4H-pyrano[2,3-c]pyridin-4-one]: the IC50 on AKT2 was greater than 10000 nM; at AKT3, greater than 10000 nM; on AKT1, no more than 1000 nM.
